Data: patent US8614227B2, “Salt and solvates of a tetrahydroisoquinoline derivative” (Spinifex Pharmaceuticals Pty Ltd, priority 2010, dated 2013)
Read-outs that look alike come from different tables or passages of the source.

Experiments:
[1] = HPMC vs gelatin capsules of amorphous Compound 2: potency, purity, water uptake after 1 week; format: physicochemical
Experimental: Twenty capsules of both hydroxypropyl methylcellulose (HPMC, also known as Hypromellose) and gelatin were filled with 25±1 mg of amorphous Compound 2 to determine if the lower water content found in HPMC capsules would retard the water uptake of the compound. Samples of Compound 2 in both capsule types were placed at 25° C./60% RH and 40° C./75% RH for 1 week. The samples were analyzed for water content, potency, and % purity (% area) at t=0 and t=1 week.
20 transparent size 00 HPMC capsules and 20 transparent size 00 gelatin capsules were hand filled with API.
Each capsules was filled with 25±1 mg of API.
The two capsule types were both separated into two 30 cc HDPE bottles with caps and placed at both 25° C./60% RH and 40° C./75% RH for 1 week.
For the t=0 time point, Compound 2 was analyzed for water content, potency, and % purity (% area).
Two samples of Compound 2 were taken at t=0 for water content. The first sample was taken after the HPMC capsules had been filled and the second sample was taken after the gelatin capsules had been filled. This sampling procedure was done to offset the water uptake that took place while the capsules were being filled.
76.17 mg of Compound 2 was weighed directly into a 100-mL volumetric flask.
The flask was diluted to volume with ACN and inverted to mix.
A 1 mL aliquot was transferred directly into an HPLC vial for analysis.

[2] = dog, in vivo, po, 10 mg/kg
Experimental: The study was designed to compare the PK profiles of the following four forms of Compound 1 administered as single oral capsules in fasted state. […] There was a washout period of 4 days between dosing. The blood samples were collected from each animal at predetermined times on the study Days 1, 4, 8 and 11. The plasma was analyzed for Compound 1 by a validated HPLC-MS/MS assay.
Descriptive PK parameters were determined by standard model independent methods (Gibaldi and Perrier, 1982) based on the individual plasma concentration-time data. Plasma concentrations were rounded to 3 significant figures. Plasma samples with concentrations below the quantifiable assay limit (BQL<2.00 ng/mL) were assigned values of zero for mean calculations. For PK calculations, BQL was set to zero from the pre-dose time up to the time of the first quantifiable concentration and thereafter was set as missing. Nominal time points were used for all calculations. • Cmax is the observed maximum plasma concentration after dosing. • Tmax is the time to reach Cmax. • T1/2 is apparent half-life calculated by ln(2)/λ where λ is the rate constant fix the log-linear portion of the terminal phase. A minimum of three values in the post-distribution phase of the plasma concentration-time curve is required for calculation of X. • AUC(0-T) is the area under the plasma concentration-time curve from time zero to the time of the last measurable plasma concentration determined using the linear trapezoidal rule. • AUC(0-inf) is the area under the plasma concentration-time curve from time zero to infinity. It is calculated by summing AUC(0-T) and the extrapolated area from the T to infinity.
PK analyses were performed by noncompartmental analysis using model 200 in WinNonlin Professional 6.1 (Pharsight Corp., Mountain View, Calif.).

[3] = Dissolution comparison of solid sodium salt forms in capsules; format: physicochemical
Experimental: Dissolution of three forms of solid sodium salt were analyzed, a monosodium trihydrate (Compound 6), a monosodium salt dihydrate (Compound 7) and amorphous Compound 2.
The crystalline material was made by exposing amorphous Compound 2 to ambient temperature/75% RH for 24 hrs. These conditions were created using a saturated sodium chloride solution sealed in a desiccant chamber. Once the crystalline material had been created it was collected and stored at 2-8° C. until dissolution testing took place. Two samples for dissolution were prepared by weighing 25 mg±1 mg into size 00 white opaque gelatin capsules.
Crystalline Compound 7 dihydrate was made by placing a sample of the iso-propanol solvate of Compound 2 at ambient temperature and humidity conditions for 2 weeks. The iso-propanol solvate of Compound 2 readily converts to the dihydrate. Once Compound 7 had been prepared, it was collected and stored at 2-8° C. until dissolution testing was conducted. Two samples for dissolution were prepared by weighing 25 mg±1 mg into size 00 white opaque gelatin capsules.
Two samples for dissolution were prepared by weighing 25 mg±1 mg of amorphous Compound 2 into size 00 white opaque gelatin capsules.
The dissolution materials and parameters are set out in Table 33. At each pull time ˜6 mL of media was removed from each vessel and filtered through a 0.45 μm nylon filter. The first 5 mL of solution was discarded and the final 1 mL was collected in a UPLC vial for analysis.

[4] = Compound 2 solution stability, one week (HPLC % purity); format: physicochemical; conditions: for Δ% Purity at 5° C. / Δ% Purity at 25° C./60% RH: 1 week; for Initial % Purity: t=0
Experimental: The above analysis was taken as t=0 and the samples were then divided in two and one of each sample was stored at 5° C. for one week and the other of each sample was stored at 25° C./60% relative humidity (RH) for one week.
After one week, the samples were allowed to equilibrate to room temperature and if required (H2O and pH 7-9 samples stored at 5° C.) refiltered to remove precipitate.
The samples were reanalyzed by HPLC.

[5] = Gelatin Capsules, 25° C., t = 1 week
[6] = Gelatin Capsules, 40° C., t = 1 week
[7] = HPMC Capsules, 25° C., t = 1 week
[8] = HPMC Capsules, 40° C., t = 1 week

In the case of `COc1ccc2c(c1OCc1ccccc1)C[C@@H](C(=O)[O-])N(C(=O)C(c1ccccc1)c1ccccc1)C2.[Na+]` [Compound 2, sodium salt of (S)-2-(diphenylacetyl)-1,2,3,4-tetrahydro-6-methoxy-5-(phenylmethoxy)-3-isoquinoline carboxylic acid], the “% Potency” value [1, 5] is reported as 90.1%, the “% a/a Purity” value [1, 5] is reported as 98.95 % a/a and the “Δ% a/a Purity” value [1, 5] is reported as 0.00 % a/a. For the same compound, the “% Potency” value [1, 6] was 90.8%, the “% a/a Purity” value [1, 6] was 98.88 % a/a and the “Δ% a/a Purity” value [1, 6] was −0.07 % a/a. For the same compound, the “% Potency” value [1, 7] was 90.2%, the “% a/a Purity” value [1, 7] was 98.95 % a/a and the “Δ% a/a Purity” value [1, 7] was 0.00 % a/a. The “% Potency” value [1, 8] was 89.8%, the “% a/a Purity” value [1, 8] was 98.74 % a/a and the “Δ% a/a Purity” value [1, 8] was −0.21 % a/a. The “% Potency” value ([1]; Sample t = 0) was 86.3%, the “% a/a Purity” value ([1]; Sample t = 0) was 98.95 % a/a and the “potency and % purity (% area) after 1 week” value ([1]; all conditions tested (HPMC and gelatin capsules, 25° C./60% RH and 40° C./75% RH)) was “unchanged”. The “slowing of the uptake of water by HPMC capsules relative to gelatin” value ([1]; stored at 40° C./75% RH, 1 week) was 3.74%, the “Plasma concentration of Compound 1, 0.25 h” value [2] was “BQL” and the “Plasma concentration of Compound 1, 0.5 h” value [2] was “BQL”. The “Plasma concentration of Compound 1, 24 h” value [2] was “BQL”, the “Plasma concentration of Compound 1, Predose” value [2] was “BQL” and the “Plasma concentration of Compound 1, Predose” value ([2]; male, beagle) was 0.00 ng/mL. The “% Dissolution” value ([3]; 15 mins, 25 mg in gelatin capsule, pH 6.8 phosphate buffer 900 mL, 37° C., 50 RPM) was 77.8%, the “% Dissolution” value ([3]; 30 mins, pH 6.8 phosphate buffer, 50 RPM) was 83.6% and the “% Dissolution” value ([3]; 45 mins, pH 6.8 phosphate buffer, 50 RPM) was 86.3%. For the same compound, the “% Dissolution” value ([3]; 60 mins, pH 6.8 phosphate buffer, 50 RPM) was 88.8%, the “% Dissolution” value ([3]; 120 mins, pH 6.8 phosphate buffer, 150 RPM for 2nd hour) was 92.9% and the “dissolution rate (comparison of forms)” value ([3]; pH 6.8 phosphate buffer, capsules) was “dissolved considerably faster”. For the same compound, the “t = 1 week % Purity at 5° C.” value ([4]; pH 6 buffer solution) was 87.02%, the “t = 1 week % Purity at 25° C./60% RH” value ([4]; pH 6 buffer solution) was 88.98% and the “Δ% Purity at 5° C.” value ([4]; pH 6 buffer solution) was −1.35%. For the same compound, the “Δ% Purity at 25° C./60% RH” value ([4]; pH 6 buffer solution) was “+0.61%”, the “Initial % Purity” value ([4]; pH 6 buffer solution) was 88.37% and the “t = 1 week % Purity at 5° C.” value ([4]; pH 7 buffer solution) was 74.27%. For the same compound, the “t = 1 week % Purity at 25° C./60% RH” value ([4]; pH 7 buffer solution) was 76.52%, the “Δ% Purity at 5° C.” value ([4]; pH 7 buffer solution) was −1.85% and the “Δ% Purity at 25° C./60% RH” value ([4]; pH 7 buffer solution) was “+0.40%”. The “Initial % Purity” value ([4]; pH 7 buffer solution) was 76.12%, the “t = 1 week % Purity at 5° C.” value ([4]; pH 8 buffer solution) was 81.45% and the “t = 1 week % Purity at 25° C./60% RH” value ([4]; pH 8 buffer solution) was 86.70%. The “Δ% Purity at 5° C.” value ([4]; pH 8 buffer solution) was −4.09%, the “Δ% Purity at 25° C./60% RH” value ([4]; pH 8 buffer solution) was “+1.16%” and the “Initial % Purity” value ([4]; pH 8 buffer solution) was 85.54%. The “t = 1 week % Purity at 5° C.” value ([4]; pH 9 buffer solution) was 89.17%, the “t = 1 week % Purity at 25° C./60% RH” value ([4]; pH 9 buffer solution) was 91.60% and the “Δ% Purity at 5° C.” value ([4]; pH 9 buffer solution) was −2.07%. The “Δ% Purity at 25° C./60% RH” value ([4]; pH 9 buffer solution) was “+0.36%”, the “Initial % Purity” value ([4]; pH 9 buffer solution) was 91.24% and the “t = 1 week % Purity at 5° C.” value ([4]; solution in ACN) was 97.50%. The “t = 1 week % Purity at 25° C./60% RH” value ([4]; solution in ACN) was 97.46%, the “Δ% Purity at 5° C.” value ([4]; solution in ACN) was 0.00% and the “Δ% Purity at 25° C./60% RH” value ([4]; solution in ACN) was −0.04%. The “Initial % Purity” value ([4]; solution in ACN) was 97.50%, the “t = 1 week % Purity at 5° C.” value ([4]; solution in H2O) was 94.66% and the “t = 1 week % Purity at 25° C./60% RH” value ([4]; solution in H2O) was 95.67%. The “Δ% Purity at 5° C.” value ([4]; solution in H2O) was −0.92%, the “Δ% Purity at 25° C./60% RH” value ([4]; solution in H2O) was “+0.09%” and the “Initial % Purity” value ([4]; solution in H2O) was 95.58%. The “t = 1 week % Purity at 5° C.” value ([4]; solution in IPA) was 89.59%, the “t = 1 week % Purity at 25° C./60% RH” value ([4]; solution in IPA) was 90.51% and the “Δ% Purity at 5° C.” value ([4]; solution in IPA) was “+0.31%”. For the same compound, the “Δ% Purity at 25° C./60% RH” value ([4]; solution in IPA) was “+1.23%”, the “Initial % Purity” value ([4]; solution in IPA) was 89.28% and the “t = 1 week % Purity at 5° C.” value ([4]; solution in MeOH) was 97.52%. The “t = 1 week % Purity at 25° C./60% RH” value ([4]; solution in MeOH) was 97.39%, the “Δ% Purity at 5° C.” value ([4]; solution in MeOH) was “+0.13%” and the “Δ% Purity at 25° C./60% RH” value ([4]; solution in MeOH) was 0.00%. The “Initial % Purity” value ([4]; solution in MeOH) was 97.39%.
